Measured values reported in patent US8778954B2, “Phenylpyridine derivative and medicinal agent comprising same” (Kowa Company, Ltd., priority 2009, dated 2014).

Target: T1, human PPARγ2 (Homo sapiens, UniProt P37231)
T1 construct: the amino acids 182 to 505 of human PPARγ2; expressed in transfected cells; host or cells: COS7 cells (African green monkey kidney)
T1 sequence (P37231 182-505): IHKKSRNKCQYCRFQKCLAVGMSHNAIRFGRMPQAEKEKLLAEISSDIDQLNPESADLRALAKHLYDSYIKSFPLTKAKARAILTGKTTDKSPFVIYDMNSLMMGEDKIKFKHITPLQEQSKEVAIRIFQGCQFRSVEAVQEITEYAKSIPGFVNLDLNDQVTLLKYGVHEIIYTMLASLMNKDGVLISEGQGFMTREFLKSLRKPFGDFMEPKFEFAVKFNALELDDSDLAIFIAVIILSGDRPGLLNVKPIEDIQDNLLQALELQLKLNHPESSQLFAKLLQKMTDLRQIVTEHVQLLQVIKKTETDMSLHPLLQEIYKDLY
Assay: PPARγ activation activity, Gal4-PPARγ2 LBD luciferase transfection assay using COS7 cells
Assay type: cell-based
Conditions: Gal4-human PPARγ2 LBD chimera, 16 hours, rosiglitazone = 100%
Experimental: The agonistic activity of the compounds of the invention on PPARγ was measured based on the transfection assay using COS7 cells (DS Pharma Biomedical Co., Ltd., Osaka, Japan), which are the cell line derived from the kidney of the African green monkey. COS7 cells were cultured under 5% CO2 concentration, and DMEM medium containing 10% fetal bovine serum, glutamic acid, and antibiotics was used as a medium.
As an expression vector, a chimera in which DNA binding domain of Gal4, which is a yeast transcription factor, and ligand binding domain of human PPARγ2 are fused, i.e., a fused product between the amino acids 1 to 147 of Gal4 transcription factor and the amino acids 182 to 505 of human PPARγ2, was used. Furthermore, as a reporter vector, a firefly luciferase containing five copies of Gal4 recognition sequence in the promoter region was used. Plasmid transfection to the cells was performed according to a method which uses jetPEI (trade name, manufactured by Funakoshi Co., Ltd., Tokyo, Japan). Furthermore, β-galactosidase expression vector was employed as an internal standard.
After the transfection of the cells, the medium was replaced with a DMEM medium (containing 1% serum) added with the test compound, and the cells were further cultured for 16 hours. After that, the luciferase activity and β-galactosidase activity in the cell lysis solution were measured.
For the present test, dimethyl sulfoxide (DMSO) was used for dissolution and dilution of the test compounds, and during the cell treatment, the DMSO concentration in DMEM medium (containing 1% serum) was adjusted to 0.1%. As a positive compound, rosiglitazone (trade name, manufactured by ALEXIS Corporation, Switzerland) was used. The luciferase activity (%) of the test compounds (1 to 30 μmol/L) was calculated when the luciferase activity of rosiglitazone (3 to 10 μmol/L) is 100% and the luciferase activity in the absence of the test compound is 0%. The 50% effective concentration of the test compound (EC50, 50% effect concentration) was calculated by using SAS Preclinical Package Ver 5.0 (trade name, manufactured by SAS institute Japan Co., Tokyo, Japan), which is a statistical analysis program.
EC50 values of these compounds are described in Table 2. […] Under the same condition, the PPARγ activation activity of telmisartan, i.e., EC50, was 1 to 5 μM.

Structure (SMILES)	EC50 [nM]
CCCCc1nc(C(C)C)n(-c2ncc(OCC)cn2)c(=O)c1Cc1ccc(-c2ccccc2-c2nnn[nH]2)nc1 [Example 6, 5-{{6-[2-(1H-tetrazol-5-yl)phenyl]pyridin-3-yl}methyl}-6-butyl-3-(5-ethoxypyrimidin-2-yl)-2-isopropylpyrimidin-4(3H)-one]	1360
CCCCc1nc(C)n(-c2cc(C)ccn2)c(=O)c1Cc1ccc(-c2ccccc2-c2noc(=O)[nH]2)nc1 [Example 15, 3-{2-{5-{[4-butyl-2-methyl-1-(4-methylpyridin-2-yl)-6-oxo-1,6-dihydropyrimidin-5-yl]methyl}pyridin-2-yl}phenyl}-1,2,4-oxadiazol-5(4H)-one]	3610
CCCCc1nc(C)n(-c2ncc(OCC)cn2)c(=O)c1Cc1ccc(-c2ccccc2-c2noc(=O)[nH]2)nc1 [Example 17, 3-{2-{5-{[4-butyl-1-(5-ethoxypyrimidin-2-yl)-2-methyl-6-oxo-1,6-dihydropyrimidin-5-yl]methyl}pyridin-2-yl}phenyl}-1,2,4-oxadiazol-5(4H)-one]	3120
CCCCc1nc(CC)n(-c2ncc(OC)cn2)c(=O)c1Cc1ccc(-c2ccccc2-c2noc(=O)[nH]2)nc1 [Example 18, 3-{2-{5-{[4-butyl-2-ethyl-1-(5-methoxypyrimidin-2-yl)-6-oxo-1,6-dihydropyrimidin-5-yl]methyl}pyridin-2-yl}phenyl}-1,2,4-oxadiazol-5(4H)-one]	3390
CCCCc1nc(CC)n(-c2ncc(OCC)cn2)c(=O)c1Cc1ccc(-c2ccccc2-c2noc(=O)[nH]2)nc1 [Example 19, 3-{2-{5-{[4-butyl-1-(5-ethoxypyrimidin-2-yl)-2-ethyl-6-oxo-1,6-dihydropyrimidin-5-yl]methyl}pyridin-2-yl}phenyl}-1,2,4-oxadiazol-5(4H)-one]	1500
CCCCc1nc(C(C)C)n(-c2ncc(OC)cn2)c(=O)c1Cc1ccc(-c2ccccc2-c2noc(=O)[nH]2)nc1 [Example 20, 3-{2-{5-{[4-butyl-2-isopropyl-1-(5-methoxypyrimidin-2-yl)-6-oxo-1,6-dihydropyrimidin-5-yl]methyl}pyridin-2-yl}phenyl}-1,2,4-oxadiazol-5(4H)-one]	850
CCCCc1nc(C2CC2)n(-c2ncc(OC)cn2)c(=O)c1Cc1ccc(-c2ccccc2-c2noc(=O)[nH]2)nc1 [Example 22, 3-{2-{5-{[4-butyl-2-cyclopropyl-1-(5-methoxypyrimidin-2-yl)-6-oxo-1,6-dihydropyrimidin-5-yl]methyl}pyridin-2-yl}phenyl}-1,2,4-oxadiazol-5(4H)-one]	1550
CCCCc1nc(C2CCC2)n(-c2ncc(OC)cn2)c(=O)c1Cc1ccc(-c2ccccc2-c2noc(=O)[nH]2)nc1 [Example 24, 3-{2-{5-{[4-butyl-2-cyclobutyl-1-(5-methoxypyrimidin-2-yl)-6-oxo-1,6-dihydropyrimidin-5-yl]methyl}pyridin-2-yl}phenyl}-1,2,4-oxadiazol-5(4H)-one]	1460
CCCCc1nc(C2CCC2)n(-c2ncc(OCC)cn2)c(=O)c1Cc1ccc(-c2ccccc2-c2noc(=O)[nH]2)nc1 [Example 25, 3-{2-{5-{[4-butyl-2-cyclobutyl-1-(5-ethoxypyrimidin-2-yl)-6-oxo-1,6-dihydropyrimidin-5-yl]methyl}pyridin-2-yl}phenyl}-1,2,4-oxadiazol-5(4H)-one]	820
CCCCc1nc(C2CCCC2)n(-c2ncc(OCC)cn2)c(=O)c1Cc1ccc(-c2ccccc2-c2noc(=O)[nH]2)nc1 [Example 26, 3-{2-{5-{[4-butyl-2-cyclopentyl-1-(5-ethoxypyrimidin-2-yl)-6-oxo-1,6-dihydropyrimidin-5-yl]methyl}pyridin-2-yl}phenyl}-1,2,4-oxadiazol-5(4H)-one]	380
CCCCc1nc(C2CCCCC2)n(-c2ncc(OCC)cn2)c(=O)c1Cc1ccc(-c2ccccc2-c2noc(=O)[nH]2)nc1 [Example 27, 3-{2-{5-{[4-butyl-2-cyclohexyl-1-(5-ethoxypyrimidin-2-yl)-6-oxo-1,6-dihydropyrimidin-5-yl]methyl}pyridin-2-yl}phenyl}-1,2,4-oxadiazol-5(4H)-one]	670
CCCCc1nc(C)n(-c2ncc(C(F)(F)F)cc2Cl)c(=O)c1Cc1ccc(-c2ccccc2-c2nnn[nH]2)cn1 [Example 32, 5-{{5-[2-(1H-tetrazol-5-yl)phenyl]pyridin-2-yl}methyl}-6-butyl-3-[3-chloro-5-(trifluoromethyl)pyridin-2-yl]-2-methylpyrimidin-4(3H)-one]	2740

Target: T2, angiotensin II type 1 receptor (Oryctolagus cuniculus, UniProt P34976)
T2 construct: By using a specimen of isolated rabbit blood vessels; from tissue; host or cells: rabbit (New Zealand White) thoracic aorta ring
T2 sequence (P34976 1-359): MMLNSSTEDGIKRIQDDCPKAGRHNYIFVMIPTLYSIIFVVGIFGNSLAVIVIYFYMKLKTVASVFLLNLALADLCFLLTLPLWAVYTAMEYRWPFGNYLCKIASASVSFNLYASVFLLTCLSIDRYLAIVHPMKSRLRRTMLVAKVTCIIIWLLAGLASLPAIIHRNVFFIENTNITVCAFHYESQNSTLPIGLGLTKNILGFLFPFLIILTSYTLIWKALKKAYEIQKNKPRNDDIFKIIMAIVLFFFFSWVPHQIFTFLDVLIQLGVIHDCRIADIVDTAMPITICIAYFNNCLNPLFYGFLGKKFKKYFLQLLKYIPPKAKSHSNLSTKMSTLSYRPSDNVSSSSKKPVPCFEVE
Assay: Angiotensin II receptor antagonistic activity in isolated rabbit blood vessels (thoracic aorta ring, angiotensin II-induced contraction)
Assay type: cell-based
Conditions: 0.1 μM test compound, angiotensin II (10 nM)-induced contraction, read-out: Angiotensin II activity inhibitiom rate (%) at 0.1 μM concentration
Experimental: By using a specimen of isolated rabbit blood vessels, antagonistic activity of the compounds of the invention against angiotensin II type 1 receptor was estimated from a dose-response curve of angiotensin II-induced blood vessel contraction. Specifically, the specimen of thoracic aorta ring of a rabbit (New Zealand White: male, 2.4 to 3.0 kg) was suspended in a magnus bath filled with Krebs-Henseleite buffer (composition: 118 mM NaCl, 4.7 mM KCl, 2.55 mM CaCl2, 1.18 mM MgSO4, 1.18 mM KH2PO4, 24.88 mM NaHCO3, and 11.1 mM D-glucose), and angiotensin II (10 nM)-induced contraction was obtained in the presence of the compounds of each test (1 nmol/L to 10 μmol/L). During the measurement, the inside temperature of the magnus bath was maintained at 37° C. and the bath was continuously ventilated with a sufficient amount of mixed gas (95% O2 and 5% CO2). The angiotensin II-induced contraction was converted into a relative value (%) that is based on the angiotensin II (0.1 μM)-induced contraction in the absence of the compounds of each example.

Structure (SMILES)	inhibition at 0.1 µM [%]
CCCCc1nc(C)n(-c2ncc(OC)cn2)c(=O)c1Cc1ccc(-c2ccccc2-c2nnn[nH]2)nc1 [Example 1, 5-{{6-[2-(1H-tetrazol-5-yl)phenyl]pyridin-3-yl}methyl}-6-butyl-3-(5-methoxypyrimidin-2-yl)-2-methylpyrimidin-4(3H)-one]	100
CCCCc1nc(C)n(-c2ncc(OCC)cn2)c(=O)c1Cc1ccc(-c2ccccc2-c2nnn[nH]2)nc1 [Example 2, 5-{{6-[2-(1H-tetrazol-5-yl)phenyl]pyridin-3-yl}methyl}-6-butyl-3-(5-ethoxypyrimidin-2-yl)-2-methylpyrimidin-4(3H)-one]	90.8
CCCCc1nc(C)n(-c2ncc(OCCSC)cn2)c(=O)c1Cc1ccc(-c2ccccc2-c2nnn[nH]2)nc1 [Example 12, 5-{{6-[2-(1H-tetrazol-5-yl)phenyl]pyridin-3-yl}methyl}-6-butyl-2-methyl-3-{5-[2-(methylthio)ethoxy]pyrimidin-2-yl}pyrimidin-4(3H)-one]	100
CCCCc1nc(C)n(-c2ncc(OCCS(C)(=O)=O)cn2)c(=O)c1Cc1ccc(-c2ccccc2-c2nnn[nH]2)nc1 [Example 13, 5-{{6-[2-(1H-tetrazol-5-yl)phenyl]pyridin-3-yl}methyl}-6-butyl-2-methyl-3-{5-[2-(methylsulfonyl)ethoxy]pyrimidin-2-yl}pyrimidin-4(3H)-one]	100
CCCCc1nc(C)n(-c2ccccn2)c(=O)c1Cc1ccc(-c2ccccc2-c2noc(=O)[nH]2)nc1 [Example 14, 3-{2-{5-{[4-butyl-2-methyl-6-oxo-1-(pyridin-2-yl)-1,6-dihydropyrimidin-5-yl]methyl}pyridin-2-yl}phenyl}-1,2,4-oxadiazol-5(4H)-one]	59.3
CCCCc1nc(C)n(-c2cc(C)ccn2)c(=O)c1Cc1ccc(-c2ccccc2-c2noc(=O)[nH]2)nc1 [Example 15, 3-{2-{5-{[4-butyl-2-methyl-1-(4-methylpyridin-2-yl)-6-oxo-1,6-dihydropyrimidin-5-yl]methyl}pyridin-2-yl}phenyl}-1,2,4-oxadiazol-5(4H)-one]	78.3
CCCCc1nc(C)n(-c2ncc(OC)cn2)c(=O)c1Cc1ccc(-c2ccccc2-c2noc(=O)[nH]2)nc1 [Example 16, 3-{2-{5-{[4-butyl-1-(5-methoxypyrimidin-2-yl)-2-methyl-6-oxo-1,6-dihydropyrimidin-5-yl]methyl}pyridin-2-yl}phenyl}-1,2,4-oxadiazol-5(4H)-one]	72.9
CCCCc1nc(C)n(-c2ncc(OCC)cn2)c(=O)c1Cc1ccc(-c2ccccc2-c2noc(=O)[nH]2)nc1 [Example 17, 3-{2-{5-{[4-butyl-1-(5-ethoxypyrimidin-2-yl)-2-methyl-6-oxo-1,6-dihydropyrimidin-5-yl]methyl}pyridin-2-yl}phenyl}-1,2,4-oxadiazol-5(4H)-one]	52.1
CCCCc1nc(C2CC2)n(-c2ncc(OC)cn2)c(=O)c1Cc1ccc(-c2ccccc2-c2noc(=O)[nH]2)nc1 [Example 22, 3-{2-{5-{[4-butyl-2-cyclopropyl-1-(5-methoxypyrimidin-2-yl)-6-oxo-1,6-dihydropyrimidin-5-yl]methyl}pyridin-2-yl}phenyl}-1,2,4-oxadiazol-5(4H)-one]	59.5
CCCCc1nc(C)n(-c2ncc(OCCSC)cn2)c(=O)c1Cc1ccc(-c2ccccc2-c2noc(=O)[nH]2)nc1 [Example 28, 3-{2-{5-{{4-butyl-2-methyl-1-{5-[2-(methylthio)ethoxy]pyrimidin-2-yl}-6-oxo-1,6-dihydropyrimidin-5-yl}methyl}pyridin-2-yl}phenyl}-1,2,4-oxadiazol-5(4H)-one]	86.5
CCCCc1nc(C)n(-c2ncc(OCCS(C)(=O)=O)cn2)c(=O)c1Cc1ccc(-c2ccccc2-c2noc(=O)[nH]2)nc1 [Example 29, 3-{2-{5-{{4-butyl-2-methyl-1-{5-[2-(methylsulfonyl)ethoxy]pyrimidin-2-yl}-6-oxo-1,6-dihydropyrimidin-5-yl}methyl}pyridin-2-yl}phenyl}-1,2,4-oxadiazol-5(4H)-one]	96.3
